Assay results from publication PMC9019904, “AD Informer Set: Chemical tools to facilitate Alzheimer's disease drug discovery” (Alzheimer's & Dementia : Translational Research & Clinical …, 2022).

Tests used:
[1] = system: BV2 (mouse microglia) cell line; experiment: pHrodo-myelin phagocytosis/cell viability high content imaging assay: viability (cell count, nuclear area, nuclear intensity); conditions: 48 hours treatment
Procedure, shortened: (§1)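 Viability was read as total cell count per well by high-content imaging, with mean average nuclear intensity per cell profiling apoptosis (rise early, fall late). Compounds were given at 10 μM for 48 h, pHrodo-myelin being added for the final 20 h. Values are means of two points as % untreated control.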

[2] = system: HMC3 (human microglia) cell line; experiment: as above; conditions: 48 hours treatment
Procedure, shortened: as §1

[3] = system: BV2 (mouse microglia) cell line; experiment: pHrodo-myelin phagocytosis/cell viability high content imaging assay: phagocytosis signal; assay type: cell-based
Procedure, shortened: (§2)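 HCI read-out ~22 h post pHrodo-myelin; phagocytosis + viability simultaneously; 3 parameters extracted; intensity up = early apoptosis, down = later apoptosis.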

[4] = system: HMC3 (human microglia) cell line; experiment: as above; assay type: cell-based
Procedure, shortened: as §2

[5] = BV2, compound 10 uM, pHrodo-myelin
[6] = HMC3, compound 10 uM, pHrodo-myelin
[7] = BV2 cells, 10 uM compound, 48 hours treatment, pHrodo-myelin final 20 hours
[8] = HMC3 cells, 10 uM compound, 48 hours treatment, pHrodo-myelin final 20 hours

## CCCCCCOc1cc2c(cc1N(C)c1ncc(C(=O)O)cn1)C(C)(C)CCC2(C)C [UNC10302707A]
[1]; BV2, compound 10 uM
  1. Cell count (% control): 135.9 % control
  2. Nuclear Area (% Control): 104.8 % Control
  3. Nuclear DNA Intensity (% control): 101.8 % control
[2]; HMC3, compound 10 uM
  1. Cell count (% control): 137.9 % control
  2. Nuclear Area (% Control): 106.3 % Control
  3. Nuclear DNA Intensity (% control): 90.2 % control
[3]; [5]
  4. Phagocytosis (% control): 161.8 % control
[4]; [6]
  4. Phagocytosis (% control): 53.6 % control

## COc1nc(OCc2cccc(-c3ccccc3)c2C)ccc1CNCCNC(C)=O.Cl [UNC10302832A]
[1]; BV2 cells, 10 uM compound
  1. Cell count (% control): 21.6 % control
  2. Nuclear Area (% Control): 92.8 % Control
  3. Nuclear DNA Intensity (% control): 35.4 % control
[2]; HMC3 cells, 10 uM compound
  1. Cell count (% control): 35.9 % control
  2. Nuclear Area (% Control): 69.0 % Control
  3. Nuclear DNA Intensity (% control): 171.8 % control
[3]; [7]
  4. Phagocytosis (% control): 0.00132 % control
[4]; [8]
  4. Phagocytosis (% control): 0.4 % control

## CCN(CC)Cc1ccc(C(=O)N(CCc2ccccc2OC)[C@@H]2CCNC2)cc1.Cl.Cl [UNC10302833A]
[1]; BV2 cells, 10 uM compound
  1. Cell count (% control): 70.3 % control
  2. Nuclear Area (% Control): 106.1 % Control
  3. Nuclear DNA Intensity (% control): 102.7 % control
[2]; HMC3 cells, 10 uM compound
  1. Cell count (% control): 76.9 % control
  2. Nuclear Area (% Control): 96.9 % Control
  3. Nuclear DNA Intensity (% control): 107.9 % control
[3]; [7]
  4. Phagocytosis (% control): 210.8 % control
[4]; [8]
  4. Phagocytosis (% control): 38.5 % control

## C[C@H](CCCC(C)(C)O)[C@H]1CC[C@H]2[C@@H]3CC=C4C[C@@H](O)CC[C@]4(C)[C@H]3CC[C@]12C [UNC10302834A]
[1]; BV2, compound 10 uM
  1. Cell count (% control): 75.6 % control
  2. Nuclear Area (% Control): 103.0 % Control
  3. Nuclear DNA Intensity (% control): 136.7 % control
[2]; HMC3, compound 10 uM
  1. Cell count (% control): 99.4 % control
  2. Nuclear Area (% Control): 81.6 % Control
  3. Nuclear DNA Intensity (% control): 144.3 % control
[3]; [5]
  4. Phagocytosis (% control): 50.2 % control
[4]; [6]
  4. Phagocytosis (% control): 45.5 % control

## NCCCC[C@H](N[C@@H](CCc1ccccc1)C(=O)O)C(=O)N1CCC[C@H]1C(=O)O.O.O [UNC10302835A]
[1]; BV2, compound 10 uM
  1. Cell count (% control): 119.8 % control
  2. Nuclear Area (% Control): 103.4 % Control
  3. Nuclear DNA Intensity (% control): 99.2 % control
[2]; HMC3, compound 10 uM
  1. Cell count (% control): 155.8 % control
  2. Nuclear Area (% Control): 99.6 % Control
  3. Nuclear DNA Intensity (% control): 95.8 % control
[3]; [5]
  4. Phagocytosis (% control): 121.2 % control
[4]; [6]
  4. Phagocytosis (% control): 70.9 % control

## CC1(C)CCC(CN2CCN(c3ccc(C(=O)NS(=O)(=O)c4ccc(NCC5CCOCC5)c([N+](=O)[O-])c4)c(Oc4cnc5[nH]ccc5c4)c3)CC2)=C(c2ccc(Cl)cc2)C1 [UNC10302836A]
[1]; BV2, compound 10 uM
  1. Cell count (% control): 115.0 % control
  2. Nuclear Area (% Control): 107.1 % Control
  3. Nuclear DNA Intensity (% control): 100.7 % control
[2]; HMC3, compound 10 uM
  1. Cell count (% control): 133.1 % control
  2. Nuclear Area (% Control): 98.6 % Control
  3. Nuclear DNA Intensity (% control): 97.8 % control
[3]; [5]
  4. Phagocytosis (% control): 211.1 % control
[4]; [6]
  4. Phagocytosis (% control): 79.7 % control

## CNC(=O)c1cccc(-c2ccc3c(N4CCOC[C@@H]4C)nc(N4CCOC[C@@H]4C)nc3n2)c1 [UNC10302837A]
[1]; BV2, compound 10 uM
  1. Cell count (% control): 47.4 % control
  2. Nuclear Area (% Control): 94.2 % Control
  3. Nuclear DNA Intensity (% control): 117.6 % control
[2]; HMC3, compound 10 uM
  1. Cell count (% control): 99.5 % control
  2. Nuclear Area (% Control): 83.5 % Control
  3. Nuclear DNA Intensity (% control): 103.3 % control
[3]; [5]
  4. Phagocytosis (% control): 328.3 % control
[4]; [6]
  4. Phagocytosis (% control): 149.5 % control

## Cc1cc(OCc2nnc(SC3CCCC3)n2-c2cccnc2)ccc1-c1ccc(S(C)(=O)=O)cc1 [UNC10302838A]
[1]; BV2, compound 10 uM
  1. Cell count (% control): 15.0 % control
  2. Nuclear Area (% Control): 98.1 % Control
  3. Nuclear DNA Intensity (% control): 45.6 % control
[2]; HMC3, compound 10 uM
  1. Cell count (% control): 58.3 % control
  2. Nuclear Area (% Control): 51.1 % Control
  3. Nuclear DNA Intensity (% control): 240.9 % control
[3]; [5]
  4. Phagocytosis (% control): 0.0 % control
[4]; [6]
  4. Phagocytosis (% control): 33.5 % control

## O=C(NC1CCNCC1)c1[nH]ncc1NC(=O)c1c(Cl)cccc1Cl [UNC10302839A]
[1]; BV2, compound 10 uM
  1. Cell count (% control): 4.8 % control
  2. Nuclear Area (% Control): 121.7 % Control
  3. Nuclear DNA Intensity (% control): 82.5 % control
[2]; HMC3, compound 10 uM
  1. Cell count (% control): 70.4 % control
  2. Nuclear Area (% Control): 131.0 % Control
  3. Nuclear DNA Intensity (% control): 97.4 % control
[3]; [5]
  4. Phagocytosis (% control): 18.2 % control
[4]; [6]
  4. Phagocytosis (% control): 183.7 % control

## O=S(=O)(NC1CCNCC1)c1cc(S(=O)(=O)c2ccccc2)ccc1C(F)(F)F [UNC10302840A]
[1]; BV2, compound 10 uM
  1. Cell count (% control): 104.4 % control
  2. Nuclear Area (% Control): 105.6 % Control
  3. Nuclear DNA Intensity (% control): 95.4 % control
[2]; HMC3, compound 10 uM
  1. Cell count (% control): 108.8 % control
  2. Nuclear Area (% Control): 103.9 % Control
  3. Nuclear DNA Intensity (% control): 95.8 % control
[3]; [5]
  4. Phagocytosis (% control): 189.7 % control
[4]; [6]
  4. Phagocytosis (% control): 90.9 % control

## COc1cccc2c(NCc3ccccc3)nc(-n3c(N)nc4ccccc43)nc12 [UNC10302841A]
[1]; BV2 cells, 10 uM compound
  1. Cell count (% control): 33.6 % control
  2. Nuclear Area (% Control): 129.2 % Control
  3. Nuclear DNA Intensity (% control): 62.4 % control
[2]; HMC3 cells, 10 uM compound
  1. Cell count (% control): 55.4 % control
  2. Nuclear Area (% Control): 78.1 % Control
  3. Nuclear DNA Intensity (% control): 92.0 % control
[3]; [7]
  4. Phagocytosis (% control): 0.00115 % control
[4]; [8]
  4. Phagocytosis (% control): 0.0406 % control

## O=C(CCl)c1ccccc1Nc1cccc(C(F)(F)F)c1 [UNC10302842A]
[1]; BV2, compound 10 uM
  1. Cell count (% control): 92.3 % control
  2. Nuclear Area (% Control): 108.5 % Control
  3. Nuclear DNA Intensity (% control): 96.7 % control
[2]; HMC3, compound 10 uM
  1. Cell count (% control): 87.6 % control
  2. Nuclear Area (% Control): 81.7 % Control
  3. Nuclear DNA Intensity (% control): 149.6 % control
[3]; [5]
  4. Phagocytosis (% control): 183.6 % control
[4]; [6]
  4. Phagocytosis (% control): 56.6 % control

## CCn1cc(C(=O)O)c(=O)c2c(N)c(F)c(NC3CCCCC3)cc21 [UNC10302843A]
[1]; BV2, compound 10 uM
  1. Cell count (% control): 99.6 % control
  2. Nuclear Area (% Control): 97.0 % Control
  3. Nuclear DNA Intensity (% control): 118.4 % control
[2]; HMC3, compound 10 uM
  1. Cell count (% control): 0.0 % control
  2. Nuclear Area (% Control): 0.0 % Control
  3. Nuclear DNA Intensity (% control): 0.0 % control
[3]; [5]
  4. Phagocytosis (% control): 121.2 % control
[4]; [6]
  4. Phagocytosis (% control): 67.4 % control

## Cc1cc(C)nc(NC(=S)N2CCN(Cc3ccc(C(F)(F)F)cc3)CC2)c1 [UNC10302844A]
[1]; BV2 cells, 10 uM compound
  1. Cell count (% control): 129.8 % control
  2. Nuclear Area (% Control): 107.6 % Control
  3. Nuclear DNA Intensity (% control): 103.9 % control
[2]; HMC3 cells, 10 uM compound
  1. Cell count (% control): 133.1 % control
  2. Nuclear Area (% Control): 97.8 % Control
  3. Nuclear DNA Intensity (% control): 105.3 % control
[3]; [7]
  4. Phagocytosis (% control): 180.4 % control
[4]; [8]
  4. Phagocytosis (% control): 108.4 % control

## CCc1cnn2c(NCc3ccc[n+]([O-])c3)cc(N3CCCC[C@H]3CCO)nc12 [UNC10302845A]
[1]; BV2, compound 10 uM
  1. Cell count (% control): 16.3 % control
  2. Nuclear Area (% Control): 103.8 % Control
  3. Nuclear DNA Intensity (% control): 20.9 % control
[2]; HMC3, compound 10 uM
  1. Cell count (% control): 51.6 % control
  2. Nuclear Area (% Control): 136.2 % Control
  3. Nuclear DNA Intensity (% control): 97.0 % control
[3]; [5]
  4. Phagocytosis (% control): 3.5 % control
[4]; [6]
  4. Phagocytosis (% control): 167.0 % control

## Cc1cc(NC(=O)Nc2ccc(F)c(F)c2)n(-c2ccccc2)n1 [UNC10302846A]
[1]; BV2 cells, 10 uM compound
  1. Cell count (% control): 131.4 % control
  2. Nuclear Area (% Control): 104.7 % Control
  3. Nuclear DNA Intensity (% control): 107.1 % control
[2]; HMC3 cells, 10 uM compound
  1. Cell count (% control): 127.2 % control
  2. Nuclear Area (% Control): 103.4 % Control
  3. Nuclear DNA Intensity (% control): 94.5 % control
[3]; [7]
  4. Phagocytosis (% control): 158.9 % control
[4]; [8]
  4. Phagocytosis (% control): 71.8 % control
